This experiment concerns CEM cells HIV-1 protection, formazan growth assay. In words: NCI AIDS Antiviral Assay. To be noted: for IC50: measured here: growth of uninfected CEM cells. In short, it runs like this: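 Human CEM cells, uninfected and HIV-1-infected, received five drug concentrations, and growth was read by soluble formazan assay. Compounds giving at least 50% protection were retested; reproducible 100% protection defined confirmed active.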

Where “and” joins values, the source holds several entries; their conditions need not be identical. Equal values may be shown once. Calls of active or inactive are those of the source.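 How the source made its calls: active means compounds giving half or more protection of infected cells from virus-caused growth loss, again on retest; inactive means the rest.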 Where a SMILES comes first, the peptide text is derived from it. The star is where a group is joined. Myristoyl = CCCCCCCCCCCCCC(=O)*

Regarding `C/C(=N\NC(=S)Nc1ccccc1)[C@H]1C2CCC(C2)C1C/C=C\CCCC(=O)O` (some centres not stated), the EC50 is above 229 µM and the IC50 stood at 107 µM. In the case of `CCOC(=O)C(NC(=O)C(CCCCNP(=O)(OCC)OCC)NC(=O)C(C)NC(C)=O)C(C)C` (configuration not stated), the EC50 was above 200 µM and the IC50 is above 200 µM. On to `N=C(N)c1ccc(C(NC(=O)CNS(=O)(=O)c2ccc3ccccc3c2)P(=O)(Oc2ccccc2)Oc2ccccc2)cc1` (configuration not stated), for which the EC50 is 0.741 µM and the IC50 was 7.08 µM. Consider `O=C(O)C1Cc2c([nH]c3ccccc23)C=N1` (configuration not stated), for which the outcome was inactive. Turning to `CCCCCC1CC=CC(NC(=O)OCc2ccccc2)C1/C=C/CCCC1OCCO1` (configuration not stated), the result was inactive. With `O=C(CCCl)N1CCN(C(=O)CCCl)c2c1c1ccccc1c1ccccc21`, the EC50 was above 200 µM and the IC50 was 3.02 µM. The corresponding values for `Cc1ccc(NC(=S)N/N=C(/c2ccccc2)c2ccccn2)cc1` are above 0.2 µM and 0.105 µM. For `COc1ccc2ccc3[nH]c4c(C)cnc(NCCCN(C)C)c4c3c2c1`, in that order: above 2 µM and 0.331 µM. Regarding `c1ccc([P+](CCCCCC[P+](c2ccccc2)(c2ccccc2)c2ccccc2)(c2ccccc2)c2ccccc2)cc1`, the EC50 was above 200 µM; the IC50 is 5.37 µM and 7.24 µM.

For `C=C1C(=O)OC2C=CCCCC12` (configuration not stated), the EC50 is above 53.7 µM and the IC50 worked out at 4.68 µM. For `COc1ccc(Cl)c(CCCCCCCC(=O)O)c1`, in that order: above 200 µM and above 200 µM. The corresponding values for `O=C(O)Cn1nnc2c(=O)[nH][nH]c(=O)c21` are above 200 µM and above 200 µM. With `COc1ccc(C(=O)C(C(=O)C(=O)NCCCNC(=O)C(=O)C(C(=O)c2ccc(OC)cc2)c2ccc(OC)cc2)c2ccc(OC)cc2)cc1` (configuration not stated), the result was inactive. Consider `CCC(N)CS(=O)(=O)O` (configuration not stated), for which the EC50 was above 200 µM and the IC50 was above 200 µM. As to `c1ccc(-c2cc(-c3ccncc3)cc(-c3ccncc3)n2)cc1`, the EC50 is above 200 µM and the IC50 is above 200 µM. Take `O=C1c2cccc3cc([N+](=O)[O-])cc(c23)C(=O)N1CCCN(CCO)CCO`: the outcome was inactive. Same read-out and setting: with `NCCSSC/C=C\CSSCCN` the entry was “inactive”.

In the case of `CC(=O)c1cccc2c1CC1(C2)Cc2ccc3c(c2C1=O)CCC3` (configuration not stated), the EC50 was above 200 µM and the IC50 is above 200 µM. As for `CC(=O)OC1COC(N2c3ccccc3[C@@H]3CCc4c([nH]c5ccccc45)[C@@H]32)C(OC(C)=O)C1OC(C)=O` (mixture of isomers), the EC50 was above 155 µM and the IC50 is 19.5 µM. For `Cc1cc(C(=O)Nc2ccc(NC3=NCCN3)cc2)c(C)cc1C(=O)Nc1ccc(NC2=NCCN2)cc1`, in that order: above 200 µM and 20.4 µM. For `C[C@]12CC[C@H]3[C@@H](CCC4=C/C(=N/OCCN5CCCCC5)CC[C@@]43C)[C@@H]1CC[C@@H]2O`, in that order: above 200 µM and 4.17 µM. Turning to `O=C(O)c1ccc2c(c1)C(=O)c1ccccc1C2=O`, the EC50 was above 200 µM and the IC50 came to 97.7 µM.

Regarding `COC(=O)C(CC1CC(OC(C)=O)c2[nH]c3ccccc3c2CCN(C(C)=O)C1)C(=O)OC` (configuration not stated), the EC50 is above 135 µM and the IC50 is above 135 µM.

Take `ClC(Cl)=C(Cl)C1(Cl)CC1COCc1ccccc1` (configuration not stated): the EC50 is above 30.9 µM and the IC50 was determined as 24.5 µM. Regarding `O=c1oc2ccccc2cc1-n1nnc2cc([N+](=O)[O-])ccc21`, the EC50 is above 8.91 µM and the concentration for half-maximal inhibition (IC50) is above 8.91 µM. In the case of `N.N.N.N.[Co+3].[O-][Cl+3]([O-])([O-])[O-].[OH3+].[OH3+]`, the outcome was inactive. `CC1C(=O)N2C(=O)C(C)C(C)C(=O)N2C(=O)C1C` (configuration not stated): the EC50 is above 53.7 µM and the IC50 was above 53.7 µM. Turning to `COc1c(O)c2c(c(O)c1C(C)C)C(=O)C(O)=C1C(C)(C)CCC[C@@]12C`, the EC50 was above 120 µM and the IC50 was 16.2 µM. For `C[C@]12CC[C@H](O)C[C@@H]1CC[C@@H]1[C@@H]2CC[C@]2(C)c3nc4ccccc4cc3C[C@@H]12`, in that order: above 200 µM and 8.13 µM. `Cn1c(=O)cc(NNc2ccc(Cl)c(Cl)c2)[nH]c1=O`: the EC50 was above 200 µM and the IC50 was determined as 3.09 µM. For `COc1cc2c(c([N+](=O)[O-])c1)NC(=O)C(c1ccccc1)S2` (configuration not stated), in that order: above 200 µM and 110 µM.

For the compound `N#CCCN(c1ccc(C=Nc2ccccc2Cl)cc1)S(=O)(=O)c1ccccc1`, the EC50 is above 427 µM and the IC50 is 331 µM.

For the compound `NC(=O)c1c([N+](=O)[O-])cc(C(F)(F)F)cc1[N+](=O)[O-]`, the outcome was inactive. With `Cn1c(=O)c2c([nH]c(=O)n2C)n(C)c1=O`, the EC50 is above 200 µM and the IC50 was above 200 µM. For `COC(=O)c1cc(C#N)[nH]c1-c1ccc(C)s1`, the EC50 was above 200 µM and the IC50 is 35.5 µM. For `NC(Cn1ccc(=O)c(O)c1)C(=O)O` (configuration not stated), in that order: above 200 µM and 95.5 µM. For `CC(C)NC(=O)OCCN=C1c2ccccc2CCc2ccccc21`, in that order: above 200 µM and 27.5 µM. Consider `O=[N+]([O-])c1cc2c(c3nonc13)OCCCCO2`, for which the EC50 is above 200 µM and the half-inhibitory concentration (IC50) stood at 1.15 µM.

Turning to `Nc1ncnc2c(C3OC(CO)C(O)C3O)nsc12` (configuration not stated), the EC50 is above 200 µM.

As to `CC(=N\N=C\c1ccccn1)/C(C)=N/N=C(C)/C(C)=N/N=C/c1ccccn1`, the result was inactive. On to `Cc1cc(C)nc(NC(P(=O)(O)O)P(=O)(O)O)n1`, for which the EC50 was above 200 µM and the IC50 is above 200 µM. Regarding `Cc1noc(C)c1N=Nc1ccc2nonc2c1N`, the EC50 was above 200 µM and the IC50 is above 200 µM. Turning to `Cc1ncc([N+](=O)[O-])n1CCNC(=O)CCn1ccnc1[N+](=O)[O-]`, the EC50 was above 200 µM and the IC50 is above 200 µM. Consider `Nc1ccc(C(=O)N/C(=C\c2cccc([N+](=O)[O-])c2)c2nc3[nH]c(=S)[nH]c(=O)c3[nH]2)cc1`, for which the outcome was inactive. As for `COc1ccc(-c2[nH]c3ccccc3c2-c2ccc(OC)cc2)cc1`, the EC50 was above 200 µM and the IC50 amounted to 12.9 µM. As to `COc1cc2c(oc(=O)c3cc4cc([Si](C)(C)C)oc4c(OC)c32)c2cccc(O)c12`, the EC50 was above 1.2 µM and the IC50 was above 1.2 µM.

Consider `Cc1cc(S(=O)(=O)Nc2nc(Nc3ccccc3)nn2C)c(S)cc1Cl`, for which the EC50 is above 200 µM and the IC50 is 166 µM.

For the compound `CCCCCCCCCC1C(C)c2c([nH]c3ccccc23)C2C(=O)N(c3ccccc3)C(=O)C21` (configuration not stated), the result was inactive. As for `[N-]=[N+]=Nc1c(-c2ccccc2)c(Cl)nc2ccccc12`, the EC50 was above 200 µM and the IC50 amounted to 20.4 µM. For `CCCCCCCCCCCCCC(=O)NCC(=O)NC(CC(N)=O)C(=O)NC(C)C(=O)NC(C)C(=O)NC(C)C(=O)NC(C)C(=O)NC(CCCCN)C(=O)NC(CCCCN)C(=O)NCC(=O)NC(Cc1ccc(O)cc1)C(N)=O` (configuration not stated) (Myristoyl-GNAAAAKKGY-NH2; configuration not given here), in that order: above 214 µM and above 214 µM. `CO[C@@H]1C=C[C@@]23c4cc5c(cc4CN(C[C@@H]2O)[C@H]3C1)OCO5`: the EC50 was above 603 µM and the IC50 was 1.1 µM. For `O=[N+]([O-])c1ccc(-c2nc(N(CCO)CCO)c3ccccc3n2)o1`, in that order: above 200 µM and 0.331 µM. On to `CO[C@H](c1ccccc1)[C@H](C)N(C)c1ccc2ccccc2c1C1=NC(C)(C)CO1`, for which the EC50 is above 64.6 µM and the IC50 was above 64.6 µM. Consider `CCN=C(C#N)NCC`, for which the EC50 was above 708 µM and the IC50 is 257 µM. For `CCC1CN2CCC3(c4ccccc4)CC(C(=O)OC)=CC1C23` (configuration not stated), in that order: above 251 µM and 38.9 µM. Take `CC1=C(C#N)S(=O)(=O)c2c(oc(C)c2C)N1`: the EC50 was above 200 µM and the IC50 is above 200 µM. On to `Cc1sc2nc3n(c(=O)c2c1C)N=C(c1ccc(Cl)cc1)CS3`, for which the EC50 was above 200 µM and the IC50 was above 200 µM.

Take `N#C/C(=C\N1CC(=O)NC1=S)C(=O)c1ccc2ccccc2c1`: the EC50 is above 200 µM and the IC50 is 158 µM. For `CCOC(=O)/C=C1\C[C@H](NC(=O)OCc2ccccc2)C(=O)N1CC(=O)OCC`, in that order: above 200 µM and above 200 µM.

As for `O=C1C2C(C(=O)N1c1ccccc1)C(c1ccccc1)N(c1ccccc1)C2c1ccccc1` (configuration not stated), the EC50 is above 22.4 µM and the IC50 was 15.8 µM. The corresponding values for `c1ccc(N/N=C2\CC(c3ccccc3)Oc3ccccc32)cc1` (configuration not stated) are above 200 µM and 22.4 µM. For `C/C(=N\NC(N)=O)c1cc2cc([N+](=O)[O-])ccc2oc1=O`, in that order: above 70.8 µM and above 70.8 µM. The corresponding values for `CCCCCCC1=C(O)C(=O)C(CCCCCC)=C(O)C1=O` are above 69.2 µM and 11.7 µM. As for `COc1ccc(CC#N)c(OCc2ccccc2)c1`, the EC50 was above 53.7 µM and the IC50 was determined as 17.8 µM.

As for `O=C1NN2CCN=C2c2ncccc21`, the EC50 was above 933 µM and the IC50 is above 933 µM.

As for `O=[N+]([O-])C(Cl)C(Cl)c1ccc(Cl)cc1` (configuration not stated), the EC50 was above 200 µM and the IC50 came to 7.41 µM. For `CN(C)c1ccc(C=C2C(=O)NC(=O)NC2=O)cc1`, in that order: above 28.2 µM and above 28.2 µM. The compound `Nc1ccc([As](=O)(O)O)cc1C(=O)O` showed an EC50 above 200 µM and an IC50 above 200 µM.

For `O=[N+]([O-])C(=C(Cl)Cl)/C(Cl)=C(\Cl)Br`, the outcome was inactive.

With `COc1ccccc1-c1n[nH]c(-c2ccccc2O)n1`, the EC50 is above 200 µM and the IC50 is above 200 µM. For `C#CCC(C#C)N(CCc1ccsc1)Cc1ccccc1` (configuration not stated), the EC50 was above 200 µM and the IC50 came to 67.6 µM. Take `CCOC(=O)C1=CNN=CC12C(=O)C(C(=O)OCC)CC2C(=O)OCC` (configuration not stated): the EC50 was above 245 µM and the IC50 was above 245 µM.

The term EC50 denotes the midpoint of the concentration-response curve. The IC50 is the concentration that inhibits the measured activity by half. Low values mean inhibition by little substance, high ones a need for much substance.

The record behind these values is PubChem BioAssay AID179 (DTP/NCI, 2004).
